Test results as given in patent publication US6465482B2, “Arylpiperazinyl-cyclohexyl indole derivatives for the treatment of depression” (Wyeth, priority 1999, dated 2002).

Legend:
[1] = target: T1, human 5-HT1A receptor subtype (Homo sapiens, UniProt P08908); assay: 5-HT1A receptor binding, [3H]8-OH-DPAT, CHO cell membranes; settings: for Ki: [3H]8-OH-DPAT 1.5 nM; for 5-HT1A, value given as %: concentration not given
T1 construct: expressed in transfected cells
T1 sequence (P08908 1-422): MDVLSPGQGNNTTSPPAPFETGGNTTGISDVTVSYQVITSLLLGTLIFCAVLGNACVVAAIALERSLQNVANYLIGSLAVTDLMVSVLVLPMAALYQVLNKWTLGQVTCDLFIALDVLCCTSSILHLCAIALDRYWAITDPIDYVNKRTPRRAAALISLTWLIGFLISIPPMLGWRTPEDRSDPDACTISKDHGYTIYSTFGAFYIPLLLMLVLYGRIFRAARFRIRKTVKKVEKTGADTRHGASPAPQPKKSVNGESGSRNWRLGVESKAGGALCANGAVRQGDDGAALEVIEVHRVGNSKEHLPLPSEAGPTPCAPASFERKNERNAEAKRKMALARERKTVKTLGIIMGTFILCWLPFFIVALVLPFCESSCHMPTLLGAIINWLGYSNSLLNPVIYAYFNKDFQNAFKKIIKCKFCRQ
Experimental: (§1) The PCR cloning of the human 5-HT1A receptor subtype from a human genomic library has been described previously Chanda et al., Mol. Pharmacol., 43:516 (1993). A stable Chinese hamster ovary cell line expressing the human 5-HT1A receptor subtype (5-HT1A.CH2O cells) was employed throughout this study. Cells were maintained in DMEM supplemented with 10% fetal calf serum, non-essential amino acids and penicillin/streptomycin.
Cells were grown to 95-100% confluency as a monolayer before membranes were harvested for binding studies. Cells were gently scraped from the culture plates, transferred to centrifuge tubes, and washed twice by centrifugation (2000 rpm for 10 min., 4° C.) in buffer (50 mM Tris; pH 7.5). The resulting pellets were aliquoted and placed at −80° C. On the day of assay, the cells were thawed on ice, and resuspended in buffer. Studies were conducted using [^3H]8-OH-DPAT as the radioligand. The binding assay was performed in 96 well microtiter plates in a final total volume of 250 μL of buffer. Competition experiments were performed by using 7 concentrations of unlabelled drug and a final ligand concentration of 1.5 nM. Non-specific binding was determined in the presence of 10 μM 5HT. Saturation analysis was conducted by using [^3H]8-OH-DPAT at concentaritions ranging from 0.3-30 nm Following a 30 minute incubation at room temperature, the reaction was terminated by the addition of ice cold buffer and rapid filtration using a M-96 Brandel Cell Harvester (Gaithersburg, Md.) through a GF/B filter presoaked for 30 minutes in 0.5% polyethylenenimine.

serotonin transporter = target: T2, serotonin transporter (Rattus norvegicus, UniProt P31652); assay: serotonin transporter affinity, 3H-paroxetine binding, frontal cortical membranes; settings: for Ki: 3H-paroxetine 0.1 nM, read-out: ST (Ki, nM,)
T2 construct: frontal cortical membranes prepared from male Sprague-Dawley rats; from tissue; host or cells: rat frontal cortex membranes
Experimental: A protocol similar to that used by Cheetham et al., Neuropharmacol. […] Briefly, frontal cortical membranes prepared from male Sprague-Dawley rats were incubated with ^3H-paroxetine (0.1 nM) for 60 minutes at 25° C. […] All reactions are terminated by the addition of ice cold Tris buffer followed by rapid filtration using a Tom Tech filtration device to separate bound from free ^3H-paroxetine.

[2] = target: T3, human 5-HT1A receptor subtype (5-HT1A CHO cells) (Homo sapiens, UniProt P08908); assay: forskolin-stimulated cAMP formation (cAMP SPA assay); format: cell-based; settings: forskolin 1 uM
T3 construct: expressed in transfected cells
T3 sequence (P08908 1-422): T1 sequence (P08908 1-422)
Experimental: as §1
The following assays were performed by incubating the cells with DMEM containing 25 mM HEPES, 5 mM theophylline and 10 μM pargyline for a period of 20 minutes at 37° C. Functional activity was assessed by treating the cells with forskolin (1 uM final concentration) followed immediately by test compound (6 concentrations) for an additional 10 minutes at 37° C. In separate experiments, 6 concentrations of antagonist were preincubated for 20 minutes prior to the addition of 10 nM 8-OH-DPAT and forskolin. The reaction was terminated by removal of the media and addition of 0.5 ml ice cold assay buffer. Plates were stored at −20° C. prior to assessment of cAMP formation by a cAMP SPA assay (Amersham).

T2 sequence (P31652 whole entry): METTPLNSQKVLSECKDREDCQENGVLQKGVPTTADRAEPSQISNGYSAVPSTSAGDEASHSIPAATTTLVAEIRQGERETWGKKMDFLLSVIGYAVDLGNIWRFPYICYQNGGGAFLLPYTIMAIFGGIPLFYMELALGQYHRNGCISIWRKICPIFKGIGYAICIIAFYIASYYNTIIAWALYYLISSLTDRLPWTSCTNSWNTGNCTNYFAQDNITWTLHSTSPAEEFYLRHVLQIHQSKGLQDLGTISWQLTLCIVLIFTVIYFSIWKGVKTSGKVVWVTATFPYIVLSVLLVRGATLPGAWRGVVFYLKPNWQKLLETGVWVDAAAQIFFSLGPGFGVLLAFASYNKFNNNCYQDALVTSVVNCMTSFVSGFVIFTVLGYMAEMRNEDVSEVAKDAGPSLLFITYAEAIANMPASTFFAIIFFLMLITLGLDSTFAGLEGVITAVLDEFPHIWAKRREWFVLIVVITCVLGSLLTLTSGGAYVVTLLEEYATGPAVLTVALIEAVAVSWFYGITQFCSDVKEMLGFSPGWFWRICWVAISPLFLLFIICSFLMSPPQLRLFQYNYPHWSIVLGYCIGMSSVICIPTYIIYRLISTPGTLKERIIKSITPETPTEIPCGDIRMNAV

Structure (SMILES): N#Cc1ccc2[nH]cc([C@H]3CC[C@@H](N4CCN(c5cccc6ccoc56)CC4)CC3)c2c1 [Example 34a]
- Ki [1]: 185 nM
- Ki (serotonin transporter): 1.49 nM

Structure (SMILES): Fc1ccc2[nH]cc([C@H]3CC[C@@H](N4CCN(c5cccc6c5OCCO6)CC4)CC3)c2c1 [Example 24a, 3-{(1,4-cis)-4-[4-(2,3-Dihydro-benzo[1,4]dioxin-5-yl)-piperazin-1-yl]-cyclohexyl}-5-fluoro-1H-indole]
- Ki [1]: 65.7 nM
- Emax [2]: 81%
- Ki (serotonin transporter): 6.9 nM

Structure (SMILES): Cn1cc([C@H]2CC[C@@H](N3CCN(c4cccc5cccnc45)CC3)CC2)c2cc(F)ccc21 [Example 28, 8-{4-(1,4-cis)-4-[4-(5-Fluoro-1-methyl-1H-indol-3-yl)-cyclohexyl]-piperazin-1-yl}-quinoline]
- Ki [1]: 25.1 nM
- Ki (serotonin transporter): 2.02 nM

Structure (SMILES): N#Cc1ccc2[nH]cc([C@H]3CC[C@@H](N4CCN(c5cc(F)cc6c5OCC6)CC4)CC3)c2c1 [Example 33a, 3-{(1,4-cis)-4-[4-(5-Fluoro-2,3-dihydro-benzofuran-7-yl)-piperazin-1-yl]-cyclohexyl}-1H-indole-5-carbonitrile]
- Ki [1]: 98.9 nM
- Ki (serotonin transporter): 1.9 nM

Structure (SMILES): Fc1cc2c(c(N3CCN([C@H]4CC[C@@H](c5c[nH]c6ccc(F)cc65)CC4)CC3)c1)OCCC2 [Example 31a, 5-Fluoro-3-{(1,4-cis)-4-[4-(6-fuoro-chroman-8-yl)-piperazin-1-yl]-cyclohexyl}-1H-indole]
- Ki [1]: 142 nM
- Ki (serotonin transporter): 13 nM

Structure (SMILES): Cn1ccc2c(N3CCN([C@H]4CC[C@@H](c5cn(C)c6ccc(C#N)cc65)CC4)CC3)cccc21 [Example 17, 1-Methyl-3-{(1,4-cis)-4-[4-(1-methyl-1H-indol-4-yl)-piperazin-1-yl]-cyclohexyl}-1H-indole-5-carbonitrile]
- 5-HT1A, value given as % [1]: 0%
- Ki (serotonin transporter): 2.5 nM

Structure (SMILES): N#Cc1ccc2c(c1)c([C@H]1CC[C@@H](N3CCN(c4cccc5[nH]ccc45)CC3)CC1)cn2Cc1ccccc1 [Example 16a, 1-Benzyl-3-{(1,4-cis)-4-[4-(1H-indol-4-yl)-piperazin-1-yl]-cyclohexyl}-1H-indole-5-carbonitrile]
- 5-HT1A, value given as % [1]: 0%
- Ki (serotonin transporter): 29 nM

Structure (SMILES): N#Cc1ccc2[nH]cc([C@H]3CC[C@@H](N4CCN(c5cccc6cccnc56)CC4)CC3)c2c1 [Example 29a, 3-[(1,4-cis)-4-(4-Quinolin-8-yl-piperazin-1-yl)-cyclohexyl]-1H-indole-5-carbonitrile]
- Emax [2]: 0%
- Ki (serotonin transporter): 2.25 nM

Structure (SMILES): N#Cc1ccc2[nH]cc([C@H]3CC[C@H](N4CCN(c5cccc6[nH]ccc56)CC4)CC3)c2c1 [Example 7b, 3-{4-[(1,4-trans)-4-(1H-Indol-4-yl)-piperazinyl-1-yl]cyclohexyl}-1H-indole-5-carbonitrile]
- Emax [2]: 83%
- Ki (serotonin transporter): 4.19 nM

Structure (SMILES): Cn1cc([C@H]2CC[C@@H](N3CCN(c4cccc5cccnc45)CC3)CC2)c2cc(C#N)ccc21 [Example 30, 1-Methyl-3-[(1,4-cis)-4-(4-quinolin-8-yl-piperazin-1-yl)-cyclohexyl]-1H-indole-5-carbonitrile]
- Ki [1]: 24.5 nM
- Emax [2]: 95%
- Ki (serotonin transporter): 1.25 nM

Structure (SMILES): COc1ccccc1C1CCN([C@H]2CC[C@@H](c3c[nH]c4ccc(F)cc43)CC2)CC1 [Example 19a, 5-Fluoro-3-{(1,4-cis)-4-[4-(2-methoxy-phenyl)-piperidin-1-yl]-cyclohexyl}-1H-indole]
- Ki [1]: 264 nM
- Ki (serotonin transporter): 5.72 nM

Structure (SMILES): c1cc(N2CCN([C@H]3CC[C@@H](c4c[nH]c5ncccc54)CC3)CC2)c2cc[nH]c2c1 [Example 10a, 3-{(1,4-cis)-4-[4-(1H-Indole-4-yl)-piperazin-1-yl]-cyclohexyl}-1H-pyrrolo[2,3-b]pyridine]
- Ki [1]: 15.8 nM
- Emax [2]: 0%

Structure (SMILES): COc1cc(N2CCN([C@H]3CC[C@@H](c4c[nH]c5ccc(C#N)cc54)CC3)CC2)c2ncccc2c1 [Example 44c, 3-{(1,4-cis)-4-[4-(6-Methoxy-quinolin-8-yl)-piperazin-1-yl]-cyclohexyl}-1H-indole-5-carbonitrile]
- Ki [1]: 21 nM
- Ki (serotonin transporter): 1.5 nM

Structure (SMILES): Cn1cc([C@H]2CC[C@@H](N3CCN(c4cc(F)cc5c4OCC5)CC3)CC2)c2cc(C#N)ccc21 [Example 33c, 3-{(1,4-cis)-4-[4-(5-Fluoro-2,3-dihydro-benzofuran-7-yl)-piperazin-1-yl]-cyclohexyl}-1-methyl-1H-indole-5-carbonitrile]
- Ki [1]: 431 nM
- Ki (serotonin transporter): 7.1 nM

Structure (SMILES): N#Cc1ccc2[nH]cc([C@H]3CC[C@H](N4CCN(c5cccc6ccoc56)CC4)CC3)c2c1 [Example 34b]
- Ki [1]: 8.37 nM
- Ki (serotonin transporter): 17 nM

Structure (SMILES): Cn1cc([C@H]2CC[C@@H](N3CCN(c4cccc5[nH]ccc45)CC3)CC2)c2cc(F)ccc21 [Example 38, 5-Fluoro-3-{cis-4-[4-(1H-indol-4-yl)-piperazinyl]-cyclohexyl}-1-methyl-1H-indole]
- Ki [1]: 124 nM
- Ki (serotonin transporter): 7.22 nM

Structure (SMILES): N#Cc1ccc2[nH]cc([C@H]3CC[C@H](N4CCN(c5cc(F)cc6c5OCC6)CC4)CC3)c2c1 [Example 33b, 3-{(1,4-trans)-4-[4-(5-Fluoro-2,3-dihydro-benzofuran-7-yl)-piperazin-1-yl]-cyclohexyl}-1H-indole-5-carbonitrile]
- Ki [1]: 19.2 nM
- Ki (serotonin transporter): 45 nM

Structure (SMILES): N#Cc1ccc2c(c1)c([C@H]1CC[C@H](N3CCN(c4cccc5[nH]ccc45)CC3)CC1)cn2Cc1ccccc1 [Example 16b, 1-Benzyl-3-{(1,4-trans)-4-[4-(1H-indol-4-yl)-piperazin-1-yl]-cyclohexyl}-1H-indole-5-carbonitrile]
- 5-HT1A, % @ 100 nM ([1]; 100 nM): 0% @
- ST, % 100 nM (serotonin transporter; 100 nM): 25%

Structure (SMILES): Fc1ccc2[nH]cc([C@H]3CC[C@H](N4CCN(c5cccc6c5OCCO6)CC4)CC3)c2c1 [Example 24b, 3-{(1,4-trans)-4-[4-(2,3-Dihydro-benzo[1,4]dioxin-5-yl)-piperazin-1-yl]-cyclohexyl}-5-fluoro-1H-indole]
- Ki [1]: 11.3 nM
- Ki (serotonin transporter): 36 nM

Structure (SMILES): CC(C)n1cc([C@H]2CC[C@@H](N3CCN(c4cccc5[nH]ccc45)CC3)CC2)c2cc(C#N)ccc21 [Example 15a, 3-{(1,4-cis)-4-[4-(1H-indol-4-yl)-piperazin-1-yl]-cyclohexyl}-1-isopropyl-1H-indole-5-carbonitrile]
- Ki (serotonin transporter): 28 nM

Structure (SMILES): Fc1cc2c(c(N3CCN([C@H]4CC[C@@H](c5c[nH]c6ccc(F)cc65)CC4)CC3)c1)OCC2 [Example 32a, 5-Fluoro-3-{(1,4-cis)-4-[4-(5-fluoro-2,3-dihydro-benzofuran-7-yl)-piperazin-1-yl]-cyclohexyl}-1H-indole]
- Ki [1]: 246 nM
- Ki (serotonin transporter): 14 nM

Structure (SMILES): CC(C)n1cc([C@H]2CC[C@H](N3CCN(c4cccc5[nH]ccc45)CC3)CC2)c2cc(C#N)ccc21 [Example 15b, 3-{(1,4-trans)-4-[4-(1H-indol-4-yl)-piperazin-1-yl]-cyclohexyl}-1-isopropyl-1H-indole-5-carbonitrile]
- ST, value given as % (serotonin transporter; concentration not given): 16%

Structure (SMILES): Fc1ccc2c(c1)[nH]cc2[C@H]1CC[C@@H](N2CCN(c3cccc4c3OCCO4)CC2)CC1 [Example 25a, 3-{(1,4-cis)-4-[4-(2,3-Dihydro-benzo[1,4]dioxin-5-yl)-piperazin-1-yl]-cyclohexyl}-6-fluoro-1H-indole]
- Ki [1]: 67.7 nM
- Emax [2]: 0%
- Ki (serotonin transporter): 63 nM
